# Source: patent US20070037205A1, “Methods and apparatus for cell based screening” (priority 2001, published 2007)
# Tested on: HT-29 cells
# Experiment: HT-29 cytotoxicity assay (resazurin), with or without IFN-γ pretreatment
# Type: cell-based, human
# Conditions: IFN-γ treatment alone (data not shown)
# Protocol: HT-29 cells (ATCC HTB-38) were cultured in McCoy's 5a Medium with 25 mM HEPES and supplemented with 10% fetal calf serum, 1× nonessential amino acids, 2 mM L-glutamine, 1 mM sodium pyruvate, 100 U/ml penicillin/100 ug/ml streptomycin (complete medium) at 37° C. in a humidified 5% CO2 cabinet. The cellular monolayer was washed with PBS and adherent cells were removed by treatment with 0.25% typsin/0.05% EDTA. The cells were collected by centrifugation and resuspended in complete medium. Cell number and viability was determined by Trypan Blue exclusion staining.
# Duplicate plates of HT-29 cells were prepared by seeding cells into clear bottom, black walled 96 well tissue culture treated microplates (Corning 3904) at 5000 cells/well in a volume of 150 μl per well. […] Reduction of resazurin due to metabolic activity causes the dye to change from a non-fluorescent to fluorescent product that can be measured at 530 nm excitation and 590 nm emission wavelengths. Relative Fluorescent Units (RFU) was measured in a Fluoroskan Ascent microplate fluorometer (Thermo/Labsystems) in a bottom-read mode with excitation at 530 nm and emission at 590 nm. […]
# Extracts that scored positive in the primary screen were evaluated for tumor cell death in a dose-dependent cytotoxicity assay. […] Inhibition of cellular growth was determined using resazurin indicator dye as described above. […]
substance,measurement,value
"IFN-γ: recombinant human IFN-γ (R & D Systems), sensitizing agent",growth inhibitory effect on HT-29 cells,no growth inhibitory effect
